From patent publication US8835644B2, “Broad spectrum benzothiophene-nitrothiazolide and other antimicrobials” (University of Virginia Patent Foundation, priority 2009, dated 2014)
In brackets after ≈: the same amount, converted by molar mass. Counter-ions that a name gives are not always drawn. Like-named read-outs stand apart in the source and are kept apart here.

Experiments:
[1] = tested on: S. aureus and S. epidermidis strains; assay: MIC by microdilution in TSB, staphylococcal strains; type: cell-based, Staphylococcus epidermidis; conditions: Staphylococcus aureus
Procedure: Minimal inhibitory concentration testing of NTZ was done in sterile round bottom 96 well microtiter polystyrene plates (Corning Inc., Corning, N.Y.) by microdilution. Tizoxanide TIZ (deacetylated form of NTZ), denitro-NTZ (TIZ without 5-nitro group) and amoxanide AMIX (TIZ-ethylamine) were also tested. Bacteria were grown overnight and suspended in fresh TSB to an OD600 of 0.01 and 100 μl were dispensed into wells with the first well containing 200 μA NTZ and other antibiotics (DMSO control) were added to well one and serially diluted from 32 μg/ml. All compounds were tested in triplicate and plates were read visually or with a plate reader (Molecular Devices) at 8, 12 and at 24 h. MIC was determined as the first well in which no visible bacterial growth was noted relative to controls. Drug effects on aerobic growth were determined in 125 ml flasks containing 25 ml of TSB medium and following inoculation (detailed above), flasks were on a gyrorotary shaker (200 rpm) at 37° C. Final concentrations of NTZ were 0, 10 and 25 μg/ml and samples were removed at hourly intervals and absorbance determined at 600 nm.

[2] = reference (33); cited from earlier work
[3] = tested on: S. epidermidis strain 9142; assay: Biofilm determination, crystal violet, S. epidermidis; type: cell-based, Staphylococcus epidermidis
Procedure: Staphylococcal strains were cultured overnight in TSB at 37° C. with shaking, diluted in fresh medium to an OD600 of 0.01 and 200 W was dispensed into sterile flat bottom polystyrene 96 well microtiter plates (Costar 3596, Corning Inc.). […] Each compound and dilution was tested in triplicate. The plates were incubated overnight at 37° C. in a humidified incubator, without shaking and both growth and biofilm accumulation were determined at 16 h.
Following recording of turbidities, the culture medium was aspirated and the wells were washed three times with distilled water, blotted on paper towels, and fixed with 75% ethanol for 10 minutes.
To visualize biofilm material, 0.5% crystal violet was added to each well and after 5 minutes was removed and the wells washed three times with distilled water. Plates were read using a microplate reader at a wavelength of 570 nm. The dye was then extracted by adding 200 W of 95% ethanol, and the absorbance was read again at 570 nm. All assays were performed in triplicate and the mean and standard deviation determined. Generally, the ethanol-solubilized crystal violet was more reliable and these determinations are reported throughout.

[4] = Zn2+ chelation, spectrophotometric and 1H NMR; type: physicochemical; conditions: 1H NMR in DMSO-d6, ratios 1:1, 1:2, 2:1, up to 72 h
Procedure: To test direct binding of Zn^2+ by NTZ in solution, we tested a range of concentrations of both NTZ and TIZ and scanned the solutions spectrophotometrically using an OLIS Cary-14 (OLIS Instruments Co., Bogart Ga.). Absolute spectra were recorded over a UV/Vis range from 220 nm to 700 nm. Spectral shifts in the 418 nm range would be attributable to changes in resonance within the thiazole ring that would result if Zn^2+ were coordinated by NTZ (9).
Chelation experiments were also performed utilizing NTZ and TIZ in DMSO-d6 (0.5 mL) with ZnCl2 using a 300 MHz Varian MercuryPlus spectrometer. Specifically, three ratios of NTZ to Zn^2+ were investigated (1:1, 1:2, 2:1) where NTZ was held constant (4 mg, 13 μmoles) while varying ZnCl2 (1.8 mg, 13 μmoles or 3.5 mg, 26 μmoles) or NTZ (8 mg, 26 μmoles) with ZnCl2 (1.8 mg, 13 μmoles). Three ratios of TIZ to Zn^2+ were also investigated (1:1, 1:2, 2:1) where TIZ was held constant (4 mg, 15 μmoles) while varying ZnCl2 (2.1 mg, 15 μmoles or 4.1 mg, 30 μmoles) or TIZ (8 mg, 30 μmoles) with ZnCl2 (2.1 mg, 15 μmoles). ^1H NMR spectra were then obtained after mixing for 5 min, 24 h, 48 h, and 72 h at room temperature. Any chelation event would be evidenced by shifting or broadening of the thiazole and benzene protons as well as loss of the amide proton.

[5] = tested on: E. histolytica; assay: Amoebic dysentery mouse infection model; type: in vivo; conditions: drugs given orally or parenterally in advance
[6] = tested on: PFOR (pyruvate ferredoxin oxidoreductase); assay: Direct PFOR enzyme assay; type: biochemical
[7] = tested on: C. difficile; assay: Disk diffusion (Kirby Bower), C. difficile; type: cell-based, Clostridium difficile; conditions: zone of inhibited growth as relative ratio to the zone for NTZ
Procedure, shortened: (§1)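 Media: LB (E. coli), Trypticase Soy (S. epidermidis), BHI (C. jejuni); plank cells. C. difficile on Wilkins Chalgrin agar, anaerobic Kirby-Bauer disks, zone vs NTZ zone ratio.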

[8] = tested on: MRSA; assay: MIC testing by broth dilution, MRSA; type: cell-based, Staphylococcus aureus; conditions: Staphylococcus aureus, MRSA, 24 h, read-out: MIC (μM) MRSA
Procedure, shortened: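 Values are broth-dilution MICs, defined as the well showing no growth on visual reading after 24 h; the tested range was 32 to 0.06 μg/ml, in organism-specific media (LB, Trypticase Soy, Brain Heart Infusion). The C. difficile entries come instead from anaerobic Kirby-Bauer disk zones, normalised to NTZ.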

[9] = tested on: C. jejuni; assay: MIC testing by broth dilution, C. jejuni; type: cell-based, Campylobacter jejuni; conditions: Campylobacter jejuni, 24 h, read-out: MIC (μM) C. jejuni
Procedure, shortened: as §1

[10] = tested on: S. epidermidis biofilm; assay: S. epidermidis biofilm assay (activity tables); type: cell-based, Staphylococcus epidermidis
Procedure, shortened: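 Overnight TSB cultures diluted to OD600 0.01 and grown static with compound (triplicate) at 37° C for 16 h; turbidity recorded for growth. Biofilm: washed wells ethanol-fixed, stained with 0.5% crystal violet, A570 read before and after 95% ethanol extraction; mean ± SD.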

[11] = tested on: E. coli biofilm; assay: E. coli biofilm assay (activity tables); type: cell-based, Escherichia coli; conditions: Escherichia coli, read-out: MIC (μM) E. coli Biofilm
Procedure, shortened: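 E. coli strain 042 inoculated 1:100 with NTZ-containing medium and grown statically at 37 °C for 24 h. Growth measured by turbidity or plate counts (cfu/ml); biofilm stained with 0.5% crystal violet and read at 570 nm; triplicate, mean ± SD.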

[12] = Solubility in water; type: physicochemical
[13] = tested on: H. pylori; assay: MIC testing by broth dilution, H. pylori; type: cell-based, Helicobacter pylori; conditions: Helicobacter pylori, 24 h, read-out: MIC (μM) H. pylori
Procedure, shortened: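 Helicobacter pylori was tested using a standard broth dilution method in 96 well microplates, each well holding a standard dilution of the organism in 100 microliters of Brain Heart Infusion. Compounds started at 32 μg/ml in 200 microliters in the first well and were serially diluted from 32 to 0.06. Wells were read visually at 24 h, and the MIC was the well with no growth.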

[14] = tested on: S. epidermidis; assay: MIC testing by broth dilution, S. epidermidis plank; type: cell-based, Staphylococcus epidermidis; conditions: Staphylococcus epidermidis, 24 h, read-out: MIC (μM) S. epidermidis Plank
Procedure, shortened: as §1

[15] = tested on: E. histolytica; assay: E. histolytica cell counts
[16] = tested on: E. coli; assay: MIC testing by broth dilution, E. coli plank; type: cell-based, Escherichia coli; conditions: Escherichia coli, 24 h, read-out: MIC (μM) E. coli Plank
Procedure, shortened: as §1

[17] = tested on: C. difficile; assay: MIC by agar dilution, C. difficile; type: cell-based, Clostridium difficile; conditions: Clostridioides difficile, read-out: MIC (μM) C. difficile
Procedure: A standard broth dilution protocol was used in 96 well microplates containing a standard dilution of the microorganism to be tested in 100 microliters of the appropriate medium. Appropriate medium: E. coli, LB medium; Staphylococcus strains, Trypticase Soy; and for H. pylori and C. jejuni, Brain Heart Infusion. The compounds to be tested were set at 32 μg/ml in 200 microliters in well one and then serially diluted to provide a range from 32 to 0.06. The wells were scored visually at 24 h. The well where there was no growth was recorded as the MIC. […]
Representative compounds of the invention were tested in a series of assays against a series of organisms as described above. […] The organisms tested include, C. difficile, H. pylori, C. jejuni, MRSA, S. epidermidis, and E. coli. S. epidermidis and E. coli were tested in the plank and biofilm assay. A disk diffusion assay was also used for C. difficile. Direct PFOR enzyme assays were also performed. All analogues and derivatives were not tested on every organism in every type of assay (the “-” in each table means that it was not tested).

[18] = tested on: S. epidermidis strain 9142; assay: Effect of zinc on the action of NTZ (biofilm and MIC); type: cell-based, Staphylococcus epidermidis; conditions: zinc 20 μM, read at 8 h
Procedure: […] As a control, ZnCl2 was added to untreated bacteria. Additional controls included testing of 10 μM CaCl2 and MgCl2 in the same format. The inhibitory effect of EDTA on biofilm production and its reversibility by Zn^2+ was also assessed as described for NTZ.

O=C(Nc1ncc([N+](=O)[O-])s1)c1ccccc1O [TIZ]
MIC ([1]; staphylococcal strains incl. MRSA S. aureus, microdilution in TSB, read-out: MIC): 8 to 16 µg/mL (≈ 30.2 to 60.3 µM)
Bound to plasma proteins [2]: 97.5%
Inhibition of biofilm production ([3]; compared with NTZ): equivalent results
Chelation with ZnCl2 [4]: no chelation

NCCOc1ccccc1C(=O)Nc1ncc([N+](=O)[O-])s1 [VPC161219, 2-(2-Aminoethoxy)-N-(5-nitrothiazol-2-yl)benzamide hydrochloride]
Prevention rates [5]: equivalence
MIC ([1]; MRSA): 16 to 32 µg/mL
PFOR inhibition relative to nitazoxanide (=100) [6]: 114%
Disk Diffusion (%) C. difficile [7]: 88 ± 4%
MIC [8]: 92.8 µM
MIC [9]: 17.4 µM
MIC (μM) S. epidermidis Biofilm [10]: 46.4 µM
Fold decrease in anti-biofilm potency versus NTZ ([3]; S. epidermidis 9142): 2 fold
IC50 ([3]; Staphylococcus epidermidis, 9142, read-out: IC50 biofilm production): 8 µg/mL
MIC [11]: 46.4 µM
Fold difference in water solubility versus NTZ ([12]; more soluble than NTZ): 15 fold
solubility ([12]; water): 400 µg/mL
MIC [13]: 0.7 µM
MIC [14]: 92.8 µM
E. histolytica cell counts, compared by MIC [15]: superior to nitazoxanide based on MIC
MIC [16]: 69.6 µM
MIC [17]: 46.4 µM
Effect of Zn2+ on the growth inhibitory action (MIC) [18]: no effect
